In BindingDB's records for doi:10.7270/Q2N58JS6 (University of Pittsburgh, 2007):
pEC50: −log10 of the molar value.

Molecular target: Serine/threonine-protein kinase PLK1 (Homo sapiens, UniProt P53350)
Experiment: H2O2 production by redox-active compounds – biochemical, 1 mM DTT, artefact control for Plk1 PBD inhibitor project, dose response (AID 936)

Chain of Serine/threonine-protein kinase PLK1 (P53350 whole entry): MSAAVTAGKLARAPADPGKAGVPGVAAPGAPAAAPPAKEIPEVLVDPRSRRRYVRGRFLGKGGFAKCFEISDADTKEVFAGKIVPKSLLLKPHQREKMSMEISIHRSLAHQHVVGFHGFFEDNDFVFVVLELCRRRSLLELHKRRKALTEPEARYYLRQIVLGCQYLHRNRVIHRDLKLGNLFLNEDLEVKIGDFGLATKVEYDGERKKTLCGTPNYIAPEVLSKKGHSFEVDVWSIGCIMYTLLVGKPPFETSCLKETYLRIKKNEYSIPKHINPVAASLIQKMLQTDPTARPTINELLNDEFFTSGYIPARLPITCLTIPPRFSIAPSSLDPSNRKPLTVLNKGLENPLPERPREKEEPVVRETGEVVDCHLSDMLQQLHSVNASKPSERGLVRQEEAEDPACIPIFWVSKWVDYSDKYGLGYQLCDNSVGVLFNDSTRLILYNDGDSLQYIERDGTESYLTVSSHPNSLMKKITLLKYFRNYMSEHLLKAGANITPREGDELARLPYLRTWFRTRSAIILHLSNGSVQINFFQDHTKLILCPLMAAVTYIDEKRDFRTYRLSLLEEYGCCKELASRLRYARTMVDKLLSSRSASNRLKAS

| Compound | pEC50 |
| --- | --- |
| O=C1C(=O)c2ccccc2-c2ccccc21 | < 4.30 |
| CCOC(=O)c1ccc(NC(=O)c2c(O)[nH]c(=O)[nH]c2=O)cc1 | < 4.30 |
| C/C(=C\C(=O)Nc1cc(C)on1)c1ccccc1 [(E)-N-(5-methyl-1,2-oxazol-3-yl)-3-phenyl-but-2-enamide] | < 4.30 |
| CC1Cn2c(nnc2-c2cc3ccccc3cc2O)S1 (stereo not drawn) [(3E)-3-(6-methyl-5,6-dihydro-2H-[1,3]thiazolo[2,3-c][1,2,4]triazol-3-ylidene)naphthalen-2-one] | < 4.30 |
| c1ccc(NCc2nnc3n2CCCCC3)cc1 [MLS000057041] | < 4.30 |
| O=C1CN(c2ccc(Br)cc2)C(=O)N1CC(=O)N1CCCc2ccccc21 [1-(4-bromophenyl)-3-[2-(3,4-dihydro-1(2H)-quinolinyl)-2-oxoethyl]-2,4-imidazolidinedione] | < 4.30 |
| CC(=O)N(N=C1Sc2ccccc2C1=O)c1cccc(C)c1 [N-(3-methylphenyl)-N-[(3-oxidanylidene-1-benzothiophen-2-ylidene)amino]ethanamide] | < 4.30 |
| Oc1ccc2ccc3cccc[n+]3c2c1 [9-benzo[c]quinolizin-11-iumol;iodide] | < 4.30 |
| C=CCSc1nccc(-c2cc(Cl)sc2Cl)n1 [2-(allylsulfanyl)-4-(2,5-dichloro-3-thienyl)pyrimidine] | < 4.30 |
| Cc1cccc2[nH]c3c(N4CCN(C(=O)c5ccco5)CC4)ncnc3c12 [SMR000148910] | < 4.30 |
| CC(C)OCCCNC(=O)c1ccc(NC(=O)C2CCCO2)cc1 (stereo not drawn) [MLS000086701] | < 4.30 |
| NC(=O)C1(N2CCCCC2)CCN(C(=O)NC2CCCCC2)CC1 [1-N-cyclohexyl-4-piperidin-1-ylpiperidine-1,4-dicarboxamide] | < 4.30 |
| O=C(Nc1nc2ccccc2s1)c1cc2c(s1)-c1ccccc1OC2 [MLS000522634] | < 4.30 |
| Cn1cc(SCC(=O)Nc2ccc3c(c2)OCCO3)c2ccccc21 [MLS000529783] | < 4.30 |
| CCn1c(SCC(N)=O)nnc1-c1ccc(S(=O)(=O)N2CCN(C)CC2)cc1 [2-[[4-ethyl-5-[4-(4-methylpiperazin-1-yl)sulfonylphenyl]-1,2,4-triazol-3-yl]sulfanyl]acetamide] | < 4.30 |
| CC(=O)N(N=C1Sc2ccccc2C1=O)c1ccccc1C [N-(2-methylphenyl)-N-[(3-oxo-1-benzothiophen-2-ylidene)amino]acetamide] | < 4.30 |
| CC(C)Sc1nc(N2CCOCC2)c2c(c1C#N)CC(C)(C)N(C)C2 [3-(isopropylthio)-6,6,7-trimethyl-1-morpholino-5,8-dihydro-2,7-naphthyridine-4-carbonitrile] | < 4.30 |
| Cc1nn(C(C)C(=O)N2CCCCC2)c(=O)c2c1sc1ccccc12 (stereo not drawn) [2-(2-keto-1-methyl-2-piperidino-ethyl)-4-methyl-benzothiopheno[2,3-d]pyridazin-1-one] | < 4.30 |
| Cn1c(-c2cc3ccc(OC(=O)C(C)(C)C)cc3oc2=O)nc2ccccc21 [2,2-Dimethyl-propionic acid 3-(1-methyl-1H-benzoimidazol-2-yl)-2-oxo-2H-chromen-7-yl ester] | < 4.30 |
| O=C(Nc1ccccn1)C1CCN(S(=O)(=O)c2cccc3nonc23)CC1 [1-(2,1,3-benzoxadiazol-4-ylsulfonyl)-N-(2-pyridinyl)-4-piperidinecarboxamide] | < 4.30 |
| Cc1ccccc1Oc1ncnc2oc(-c3ccccc3)cc12 [4-(2-methylphenoxy)-6-phenyl-furo[2,3-d]pyrimidine] | < 4.30 |
| Cc1ccc(-n2c(O)c(C=NCCN3CCOCC3)c(=O)[nH]c2=O)cc1 | < 4.30 |

| Compound | pEC50 |
| --- | --- |
| Cc1nc2c(=O)n(C)c(=O)nc-2n(C)n1 [1,3,6-Trimethyl-1H-pyrimido[5,4-e][1,2,4]triazine-5,7-dione] | < 4.30 |
| COc1ccc(N(C)C2=NS(=O)(=O)c3ccccc32)cc1 [(1,1-Dioxo-1H-1lambda*6*-benzo[d]isothiazol-3-yl)-(4-methoxy-phenyl)-methyl-amine] | < 4.30 |
| Cc1ccc(C(=O)c2c[nH]c(C(=O)NCCCN3CCOCC3)c2)cc1 [4-(4-methylbenzoyl)-N-(3-morpholin-4-ylpropyl)-1H-pyrrole-2-carboxamide] | < 4.30 |
| COc1ccc(C(C)C)cc1S(=O)(=O)Nc1ccc(Cl)cn1 [MLS000071127] | < 4.30 |
| OCC(CO)(CO)N=Cc1cc(Br)ccc1O [(6E)-4-bromanyl-6-[[[2-(hydroxymethyl)-1,3-bis(oxidanyl)propan-2-yl]amino]methylidene]cyclohexa-2,4-dien-1-one] | < 4.30 |
| CN(C)c1ccc(C(=O)Nc2nc3c(s2)CCCC3)cc1 [4-(dimethylamino)-N-(4,5,6,7-tetrahydro-1,3-benzothiazol-2-yl)benzamide] | < 4.30 |
| COc1ccc(S(=O)(=O)N(C)CC(=O)Nc2ccccc2C(F)(F)F)cc1 [2-[(4-methoxyphenyl)sulfonyl-methyl-amino]-N-[2-(trifluoromethyl)phenyl]acetamide] | < 4.30 |
| O=c1[nH]cc(COCc2ccccc2)c(=O)[nH]1 | < 4.30 |
| CC1(C)CC(=O)C=C(NCc2ccncc2)C1 [5,5-dimethyl-3-(4-pyridylmethylamino)cyclohex-2-en-1-one] | < 4.30 |
| O=C(COc1ccccc1)Nc1ccc(S(=O)(=O)N2CCOCC2)cc1 [MLS000108227] | < 4.30 |
| CCNC(=O)NC(=O)C(C)OC(=O)c1cccnc1SC (stereo not drawn) [2-(methylthio)-3-pyridinecarboxylic acid [1-(ethylcarbamoylamino)-1-oxopropan-2-yl] ester] | < 4.30 |
| O=C(NC(NC(=S)Nc1ccc(Cl)cc1Cl)C(Cl)(Cl)Cl)c1cccc([N+](=O)[O-])c1 (stereo not drawn) [3-nitro-N-[2,2,2-trichloro-1-({[(2,4-dichlorophenyl)amino]carbonothioyl}amino)ethyl]benzamide] | 4.55 |
| O=C(CN1C(=O)c2ccccc2C1=O)N1CCN(c2nnc(-c3ccccc3)c3ccccc23)CC1 [2-[2-keto-2-[4-(4-phenylphthalazin-1-yl)piperazino]ethyl]isoindoline-1,3-quinone] | < 4.30 |
| CCOC(=O)c1c2c(n(C)c1C)C(=O)C(=O)c1ccc(Br)cc1-2 [8-bromo-2,3-dimethyl-4,5-dioxo-1-benzo[e]indolecarboxylic acid ethyl ester] | 6.14 |
| O=C(NCCc1ccccc1)/C(=C\c1ccc([N+](=O)[O-])cc1)NC(=O)c1ccccc1 [MLS000575866] | < 4.30 |
| CCn1ncc(CN2CCN(C(=O)Nc3ccccc3C(=O)OC)CC2)c1C [2-[[4-[(1-ethyl-5-methyl-pyrazol-4-yl)methyl]piperazine-1-carbonyl]amino]benzoic acid methyl ester] | < 4.30 |
| CN1C(=O)N(C)C(=O)C2(Sc3ccccc3C2=O)C1=O [1',3'-dimethylspiro[benzothiophene-2,5'-hexahydropyrimidine]-2',3,4',6'-diquinone] | < 4.30 |
| Cc1ccccc1NS(=O)(=O)c1cc(C(=O)NCc2ccco2)ccc1C [MLS000052108] | < 4.30 |
| CC(=O)N(N=C1Sc2ccccc2C1=O)c1ccccc1 [N-[(Z)-(3-ketobenzothiophen-2-ylidene)amino]-N-phenyl-acetamide] | < 4.30 |
| Fc1ccc(Cn2nnnc2CN2CCN(C3CCCC3)CC2)cc1 [1-Cyclopentyl-4-[1-(4-fluoro-benzyl)-1H-tetrazol-5-ylmethyl]-piperazine] | < 4.30 |
| Cn1c(=O)c2c(ncn2CCCc2ccccc2)n(C)c1=O [1,3-Dimethyl-7-(3-phenyl-propyl)-3,7-dihydro-purine-2,6-dione] | < 4.30 |
